# Results as given in patent publication US8497365B2, “Cyclodextrin-based polymers for therapeutics delivery” (priority 2007, dated 2013).
# pIC50: −log10 of the molar value. Read-outs that look alike come from different tables or passages of the source.
# Tests used:
# [1] = system: human ovarian carcinoma cell line A2780; test: Cytotoxicity of etoposide derivatives, MTS assay; assay type: cell-based; settings: A2780, 72 h
# Procedure: The cytotoxicity of drug-polymer conjugates and linker-drug precursors was determined in the human ovarian carcinoma cell line A2780. […] 10,000 cells per well were seeded in a 96-well plate and incubated at 37° C. for 24 hours, at which time drug was added to triplicate wells at various concentrations. After 72 hours of incubation at 37° C. in the presence of drug, cells were washed with PBS, incubated for 1 hour with an MTS solution, and analyzed according to manufacturer's instructions (CellTiter 96 one solution cell proliferation assay, Promega, Madison, Wis.).
# [2] = system: HT-29 colorectal carcinoma xenografts; test: Efficacy study in subcutaneous HT29 xenograft; settings: for Deaths TR (treatment related) / Regressions CR (complete regression) / Regressions PR (partial regression) / Regressions TFS (tumor-free survivor): n=10; for Median TTE (time to endpoint): endpoint 1000 mm^3 or Day 90
# Procedure: Efficacy was evaluated in nude mice bearing subcutaneously implanted HT-29 colorectal carcinoma xenografts. HRLN female nu/nu mice were set up with 1 mm^3 HT-29 tumor fragments s.c. in the flank. The pair match was then done when the tumors reached an average size of 80 to 120 mg and was followed by beginning treatment. Dosing solutions were prepared daily and body weight was determined bi-weekly until the end of the study. Caliper measurements were taken bi-weekly to the end of the study. Animals were monitored individually, and the endpoint of the experiment was a tumor volume of 1 g or 90 days, whichever came first. […] When the endpoint was reached, the animals were euthanized.
# Tubulysin A was administered as a solution in 10% DMSO:1% Tween 80:89% Saline. The vehicle was 10% DMSO:1% Tween 80:89% Saline.
# [3] = neutral pH
# [4] = for Day of mean BW Nadir / # of TR (treatment related deaths) / Avg. Day of TR: qwkx3 iv
# Procedure: HRLN female nu/nu mice were set up and dosing solutions were prepared. Body weight was determined biweekly until the end of the study. The endpoint was where mean weight loss exceeded 20% or >10% of animals in a group died, dosing was immediately stopped. Moribund animals were euthanized following PRC SOP. All animals were euthanized 14 days post final dose.
# HT-29 (colon) cells = test: Antiproliferative activity in vitro; assay type: cell-based, human
smiles,measurement,setting,value
COc1cc([C@@H]2c3cc4c(cc3[C@@H](O[C@@H]3O[C@@H]5CO[C@@H](C)O[C@H]5[C@H](O)[C@H]3O)[C@H]3COC(=O)[C@H]23)OCO4)cc(OC)c1O [etoposide],pIC50,[1],6.70
CC[C@]1(O)C[C@@H]2CN(CCc3c([nH]c4ccccc34)[C@@](C(=O)OC)(c3cc4c(cc3OC)N(C)[C@H]3[C@@](O)(C(=O)OC)[C@H](OC(C)=O)[C@]5(CC)C=CCN6CC[C@]43[C@@H]65)C2)C1 [Vinblastine],antitumor effectiveness compared to CDP-PEG-SS-Tubulysin,[2]; 4 mg/kg qwkx3 i.v.,significantly less effective
same,% TGD,[2]; 4 mg/kg qwkx3 i.v. (Group 3),33.89%
same,BW Nadir (%),[2]; 4 mg/kg qwkx3 i.v. (Group 3),−3.60%
same,Statistical Significance vs G1 (vehicle),[2]; 4 mg/kg qwkx3 i.v. (Group 3),** (** = 0.001< P < 0.01)
same,Statistical Significance vs G4 (CDP-S-S-TUB qwkx3),[2]; 4 mg/kg qwkx3 i.v. (Group 3),*** (*** = P < 0.001)
same,"TC (tumor growth delay, T−C)",[2]; 4 mg/kg qwkx3 i.v. (Group 3),11.4 days
same,Deaths TR (treatment related),[2]; 4 mg/kg qwkx3 i.v. (Group 3),0
same,Regressions CR (complete regression),[2]; 4 mg/kg qwkx3 i.v. (Group 3),0
same,Regressions PR (partial regression),[2]; 4 mg/kg qwkx3 i.v. (Group 3),0
same,Regressions TFS (tumor-free survivor),[2]; 4 mg/kg qwkx3 i.v. (Group 3),0
same,Median TTE (time to endpoint),[2]; 4 mg/kg qwkx3 i.v. (Group 3),45.05
"CC[C@H](C)[C@H](NC(=O)[C@H]1CCCCN1C)C(=O)N(COC(=O)CC(C)C)[C@H](C[C@@H](OC(C)=O)c1nc(C(=O)N[C@@H](Cc2ccc(O)cc2)C[C@H](C)C(=O)O)cs1)C(C)C [Tubulysin A, tubulysin A]",pIC50,NCI-H1299 (lung) cells,8.55
same,solubility in water,[3],100 µg/mL
same,Day of mean BW Nadir,[4]; 0.05 mg/kg,5 days
same,# of TR (treatment related deaths),"[4]; 0.05 mg/kg, n=5",0
same,Avg. Day of TR,[4]; 0.3 mg/kg,9
same,Day of mean BW Nadir,[4]; 0.3 mg/kg,8 days
same,# of TR (treatment related deaths),"[4]; 0.3 mg/kg, n=4",4
same,Avg. Day of TR,[4]; 1 mg/kg,4
same,Day of mean BW Nadir,[4]; 1 mg/kg,3 days
same,# of TR (treatment related deaths),"[4]; 1 mg/kg, n=4",4
same,Avg. Day of TR,[4]; 3 mg/kg,3
same,Day of mean BW Nadir,[4]; 3 mg/kg,2 days
same,# of TR (treatment related deaths),"[4]; 3 mg/kg, n=4",4
same,maximum tolerated dose (MTD),"[4]; nude mice, conjugate in Tubulysin equivalents",0.05 mg/kg
same,pIC50,A2780 (ovarian) cells,8.62
same,pIC50,HT-29 (colon) cells,8.89
same,% TGD,[2]; 0.1 mg/kg qwkx3 i.v. (Group 2),2.42%
same,BW Nadir (%),[2]; 0.1 mg/kg qwkx3 i.v. (Group 2),−26.80%
same,"TC (tumor growth delay, T−C)",[2]; 0.1 mg/kg qwkx3 i.v. (Group 2),0.81 days
same,Deaths TR (treatment related),[2]; 0.1 mg/kg qwkx3 i.v. (Group 2),5
same,Regressions CR (complete regression),[2]; 0.1 mg/kg qwkx3 i.v. (Group 2),0
same,Regressions PR (partial regression),[2]; 0.1 mg/kg qwkx3 i.v. (Group 2),0
same,Regressions TFS (tumor-free survivor),[2]; 0.1 mg/kg qwkx3 i.v. (Group 2),0
same,Median TTE (time to endpoint),[2]; 0.1 mg/kg qwkx3 i.v. (Group 2),34.46
same,mortality,"[2]; 0.1 mg/kg qwkx3 i.v., HT-29 xenograft mice",50%
same,maximum body weight loss,"[2]; 0.1 mg/kg qwkx3 i.v., on day 26",26.8%
same,toxicity of the free drug,[2]; even at 0.1 mg/kg,severely toxic
